PMC6943423, “Structure-Activity Study of an All-D Antimicrobial Octapeptide D2D” (Molecules, 2019)
Square brackets hold non-standard residues; d marks the D form. Peptide text beside a SMILES is read from it. d1Nal = N[C@H](Cc1cccc2ccccc12)C(=O)O; dNle = CCCC[C@@H](N)C(=O)O; dDap = NC[C@@H](N)C(=O)O

Test system: human red blood cells
Test: Hemolytic activity
Format: cell-based
Conditions: red cells of human, 1 h, 150
Experimental: The percentage of hemolysis at 150 μM was determined for all compounds as previously described. Briefly, two-fold serial dilutions (2.35 to 150 μM) of compounds in PBS were mixed with a 0.5% v/v suspension of fresh human red blood cells (RBC) in the same buffer. After 1 h incubation at 37 °C, plates were centrifuged and aliquots of the supernatants were transferred to clear ELISA plates. Absorbance at 414 nm was determined and normalised with respect to a negative (PBS, 0%) and positive (melittin, 100%) control.

Structure (SMILES) | %H (% Hemolysis at 150 µM) [%]
CCCC[C@@H](NC(=O)[C@@H](CCCCN)NC(=O)[C@@H](Cc1cccc2ccccc12)NC(=O)[C@@H](Cc1cccc2ccccc12)NC(=O)[C@@H](Cc1ccccc1)NC(=O)[C@@H](Cc1cccc2ccccc12)NC(=O)[C@@H](CCCCN)NC(=O)[C@H](N)CCCCN)C(N)=O [Compound 9, kk(1-nal)f(1-nal)(1-nal)k(nle)-NH2] (H-[dK][dK][d1Nal][dF][d1Nal][d1Nal][dK][dNle]-NH2; N-terminus assumed) | 20
CCCC[C@@H](NC(=O)[C@@H](CCCCN)NC(=O)[C@@H](Cc1cccc2ccccc12)NC(=O)[C@@H](CN)NC(=O)[C@@H](Cc1ccccc1)NC(=O)[C@@H](Cc1cccc2ccccc12)NC(=O)[C@@H](CCCCN)NC(=O)[C@H](N)CCCCN)C(N)=O [Compound 10, kk(1-nal)f(dap)(1-nal)k(nle)-NH2] (H-[dK][dK][d1Nal][dF][dDap][d1Nal][dK][dNle]-NH2; N-terminus assumed) | 28
CCCC[C@@H](NC(=O)[C@@H](CCCCN)NC(=O)[C@@H](Cc1cccc2ccccc12)NC(=O)[C@@H](CCCC)NC(=O)[C@@H](Cc1ccccc1)NC(=O)[C@@H](Cc1cccc2ccccc12)NC(=O)[C@@H](CCCCN)NC(=O)[C@H](N)CCCCN)C(N)=O [Compound 11, kk(1-nal)f(nle)(1-nal)k(nle)-NH2] (H-[dK][dK][d1Nal][dF][dNle][d1Nal][dK][dNle]-NH2; N-terminus assumed) | 33
CCCC[C@@H](NC(=O)[C@@H](CCCCN)NC(=O)[C@@H](Cc1cccc2ccccc12)NC(=O)[C@@H](Cc1ccccc1)NC(=O)[C@@H](Cc1ccccc1)NC(=O)[C@@H](Cc1cccc2ccccc12)NC(=O)[C@@H](CCCCN)NC(=O)[C@H](N)CCCCN)C(N)=O [Compound 12, kk(1-nal)ff(1-nal)k(nle)-NH2] (H-[dK][dK][d1Nal][dF][dF][d1Nal][dK][dNle]-NH2; N-terminus assumed) | 74
CCCC[C@@H](NC(=O)[C@@H](CCCCN)NC(=O)[C@@H](Cc1cccc2ccccc12)NC(=O)[C@@H](CO)NC(=O)[C@@H](Cc1ccccc1)NC(=O)[C@@H](Cc1cccc2ccccc12)NC(=O)[C@@H](CCCCN)NC(=O)[C@H](N)CCCCN)C(N)=O [Compound 13, kk(1-nal)fs(1-nal)k(nle)-NH2] (H-[dK][dK][d1Nal][dF][dS][d1Nal][dK][dNle]-NH2; N-terminus assumed) | 29
CCCC[C@@H](NC(=O)[C@@H](CCCCN)NC(=O)[C@@H](Cc1cccc2ccccc12)NC(=O)[C@H](NC(=O)[C@@H](Cc1ccccc1)NC(=O)[C@@H](Cc1cccc2ccccc12)NC(=O)[C@@H](CCCCN)NC(=O)[C@H](N)CCCCN)[C@H](C)O)C(N)=O [Compound 14, kk(1-nal)ft(1-nal)k(nle)-NH2] (H-[dK][dK][d1Nal][dF][dT][d1Nal][dK][dNle]-NH2; N-terminus assumed) | 28
CCCC[C@@H](NC(=O)[C@@H](CCCCN)NC(=O)[C@@H](Cc1cccc2ccccc12)NC(=O)[C@@H](Cc1ccc(O)cc1)NC(=O)[C@@H](Cc1ccccc1)NC(=O)[C@@H](Cc1cccc2ccccc12)NC(=O)[C@@H](CCCCN)NC(=O)[C@H](N)CCCCN)C(N)=O [Compound 15, kk(1-nal)fy(1-nal)k(nle)-NH2] (H-[dK][dK][d1Nal][dF][dY][d1Nal][dK][dNle]-NH2; N-terminus assumed) | 40
CCCC[C@@H](NC(=O)[C@@H](CCCCN)NC(=O)[C@@H](Cc1cccc2ccccc12)NC(=O)[C@H](NC(=O)[C@@H](Cc1ccccc1)NC(=O)[C@@H](Cc1cccc2ccccc12)NC(=O)[C@@H](CCCCN)NC(=O)[C@H](N)CCCCN)C(C)C)C(N)=O [Compound 16, kk(1-nal)fv(1-nal)k(nle)-NH2] (H-[dK][dK][d1Nal][dF][dV][d1Nal][dK][dNle]-NH2; N-terminus assumed) | 54
CCCC[C@@H](NC(=O)[C@@H](Cc1cccc2ccccc12)NC(=O)[C@@H](Cc1cccc2ccccc12)NC(=O)[C@@H](CCCCN)NC(=O)[C@@H](Cc1ccccc1)NC(=O)[C@@H](Cc1cccc2ccccc12)NC(=O)[C@@H](CCCCN)NC(=O)[C@H](N)CCCCN)C(N)=O [Compound 17, kk(1-nal)fk(1-nal)(1-nal)(nle)-NH2] (H-[dK][dK][d1Nal][dF][dK][d1Nal][d1Nal][dNle]-NH2; N-terminus assumed) | 89
CCCC[C@@H](NC(=O)[C@@H](CCCC)NC(=O)[C@@H](Cc1cccc2ccccc12)NC(=O)[C@@H](CCCCN)NC(=O)[C@@H](Cc1ccccc1)NC(=O)[C@@H](Cc1cccc2ccccc12)NC(=O)[C@@H](CCCCN)NC(=O)[C@H](N)CCCCN)C(N)=O [Compound 19, kk(1-nal)fk(1-nal)(nle)(nle)-NH2] (H-[dK][dK][d1Nal][dF][dK][d1Nal][dNle][dNle]-NH2; N-terminus assumed) | 56
CCCC[C@@H](NC(=O)[C@@H](Cc1ccccc1)NC(=O)[C@@H](Cc1cccc2ccccc12)NC(=O)[C@@H](CCCCN)NC(=O)[C@@H](Cc1ccccc1)NC(=O)[C@@H](Cc1cccc2ccccc12)NC(=O)[C@@H](CCCCN)NC(=O)[C@H](N)CCCCN)C(N)=O [Compound 20, kk(1-nal)fk(1-nal)f(nle)-NH2] (H-[dK][dK][d1Nal][dF][dK][d1Nal][dF][dNle]-NH2; N-terminus assumed) | 91
CCCC[C@@H](NC(=O)[C@@H](CO)NC(=O)[C@@H](Cc1cccc2ccccc12)NC(=O)[C@@H](CCCCN)NC(=O)[C@@H](Cc1ccccc1)NC(=O)[C@@H](Cc1cccc2ccccc12)NC(=O)[C@@H](CCCCN)NC(=O)[C@H](N)CCCCN)C(N)=O [Compound 21, kk(1-nal)fk(1-nal)s(nle)-NH2] (H-[dK][dK][d1Nal][dF][dK][d1Nal][dS][dNle]-NH2; N-terminus assumed) | 85
CCCC[C@@H](NC(=O)[C@H](NC(=O)[C@@H](Cc1cccc2ccccc12)NC(=O)[C@@H](CCCCN)NC(=O)[C@@H](Cc1ccccc1)NC(=O)[C@@H](Cc1cccc2ccccc12)NC(=O)[C@@H](CCCCN)NC(=O)[C@H](N)CCCCN)[C@H](C)O)C(N)=O [Compound 22, kk(1-nal)fk(1-nal)t(nle)-NH2] (H-[dK][dK][d1Nal][dF][dK][d1Nal][dT][dNle]-NH2; N-terminus assumed) | 66
CCCC[C@@H](NC(=O)[C@@H](Cc1ccc(O)cc1)NC(=O)[C@@H](Cc1cccc2ccccc12)NC(=O)[C@@H](CCCCN)NC(=O)[C@@H](Cc1ccccc1)NC(=O)[C@@H](Cc1cccc2ccccc12)NC(=O)[C@@H](CCCCN)NC(=O)[C@H](N)CCCCN)C(N)=O [Compound 23, kk(1-nal)fk(1-nal)y(nle)-NH2] (H-[dK][dK][d1Nal][dF][dK][d1Nal][dY][dNle]-NH2; N-terminus assumed) | 74
CCCC[C@@H](NC(=O)[C@H](NC(=O)[C@@H](Cc1cccc2ccccc12)NC(=O)[C@@H](CCCCN)NC(=O)[C@@H](Cc1ccccc1)NC(=O)[C@@H](Cc1cccc2ccccc12)NC(=O)[C@@H](CCCCN)NC(=O)[C@H](N)CCCCN)C(C)C)C(N)=O [Compound 24, kk(1-nal)fk(1-nal)v(nle)-NH2] (H-[dK][dK][d1Nal][dF][dK][d1Nal][dV][dNle]-NH2; N-terminus assumed) | 50
CCCC[C@@H](NC(=O)[C@@H](Cc1cccc2ccccc12)NC(=O)[C@@H](CCCCN)NC(=O)[C@@H](CCCCN)NC(=O)[C@@H](Cc1ccccc1)NC(=O)[C@@H](Cc1cccc2ccccc12)NC(=O)[C@@H](CCCCN)NC(=O)[C@H](N)CCCCN)C(N)=O [Compound 25, kk(1-nal)fkk(1-nal)(nle)-NH2] (H-[dK][dK][d1Nal][dF][dK][dK][d1Nal][dNle]-NH2) | 50
CCCC[C@@H](NC(=O)[C@@H](Cc1cccc2ccccc12)NC(=O)[C@@H](CCCCN)NC(=O)[C@@H](Cc1ccccc1)NC(=O)[C@@H](Cc1cccc2ccccc12)NC(=O)[C@@H](CCCCN)NC(=O)[C@H](N)CCCCN)C(=O)N[C@H](CCCCN)C(N)=O [Compound 26, kk(1-nal)fk(1-nal)(nle)k-NH2] (H-[dK][dK][d1Nal][dF][dK][d1Nal][dNle][dK]-NH2; N-terminus assumed) | 18
CCCC[C@@H](NC(=O)[C@@H](CCCCN)NC(=O)[C@@H](Cc1cccc2ccccc12)NC(=O)[C@@H](CCCCN)NC(=O)[C@@H](Cc1ccccc1)NC(=O)[C@@H](Cc1cccc2ccccc12)NC(=O)[C@H](N)CCCCN)C(N)=O [Compound 27, k(1-nal)fk(1-nal)k(nle)-NH2] (H-[dK][d1Nal][dF][dK][d1Nal][dK][dNle]-NH2; N-terminus assumed) | 49
CCCC[C@@H](NC(=O)[C@@H](CCCCN)NC(=O)[C@@H](Cc1cccc2ccccc12)NC(=O)[C@@H](CCCCN)NC(=O)[C@@H](Cc1ccccc1)NC(=O)[C@H](N)Cc1cccc2ccccc12)C(N)=O [Compound 28, (1-nal)fk(1-nal)k(nle)-NH2] (H-[d1Nal][dF][dK][d1Nal][dK][dNle]-NH2; N-terminus assumed) | 62
NCCCC[C@@H](N)C(=O)N[C@H](CCCCN)C(=O)N[C@H](Cc1cccc2ccccc12)C(=O)N[C@H](Cc1ccccc1)C(=O)N[C@H](CCCCN)C(=O)N[C@H](Cc1cccc2ccccc12)C(=O)N[C@H](CCCCN)C(N)=O [Compound 30, kk(1-nal)fk(1-nal)k-NH2] (HELM PEPTIDE1{[dK].[dK].[O=C([C@@H](Cc1cccc2ccccc12)N[*:1])[*:2]].[dF].[dK].[O=C([C@@H](Cc1cccc2ccccc12)N[*:1])[*:2]].[dK].[am]}$$$$V2.0; N-terminus assumed) | 11
NCCCC[C@@H](N)C(=O)N[C@H](CCCCN)C(=O)N[C@H](Cc1cccc2ccccc12)C(=O)N[C@H](Cc1ccccc1)C(=O)N[C@H](CCCCN)C(=O)N[C@H](Cc1cccc2ccccc12)C(N)=O [Compound 31, kk(1-nal)fk(1-nal)-NH2] (HELM PEPTIDE1{[dK].[dK].[O=C([C@@H](Cc1cccc2ccccc12)N[*:1])[*:2]].[dF].[dK].[O=C([C@@H](Cc1cccc2ccccc12)N[*:1])[*:2]].[am]}$$$$V2.0; N-terminus assumed) | 20
